ChEMBL document CHEMBL3301448, “MMV Malaria Box screening against Toxoplasma gondii and Entamoeba histolytica”

Assays:
Entamoeba histolytica = experiment: MMV: Primary screening was performed with each compound at a 30 uM final concentration and in triplicate in sealed 96-well polystyrene microtiter plates. Parasite inocula (100 ul) comprising 20000 parasites/ml were added to each well and grown at 37 degrees C in a humidified atmosphere of 5% CO2 for 72 h. Positive controls consisted of metronidazole at 1 mg/ml. The growth of E. histolytica trophozoites in each well was determined microscopically by measuring the diameters of the confluent cells in drug-containing wells relative to those in the nega- tive-control wells.; assay type: functional, organism-based
Toxoplasma gondii = experiment: MMV: A total of 100ul of inoculum was added to each well (parasite/cell ratio, ~10:1; final volume, 200 ul). Six hours after inoculation, nonadherent parasites were removed, and 100 ul of complete DMEM (1% penicillin-streptomycin, 3% FBS) supplemented with inhibitors at different concentrations (2-fold serial dilutions starting from 30 uM) was added to all except the negative-control wells. Positive controls, consisting of pyrimethamine (PYR) and sulfadiazine (SDZ) (20-mg/ml stocks in DMSO), were tested at a 2mg/ml final concentration. Each test was performed in triplicate.; assay type: functional, organism-based; conditions: 6 h

SMILES | IC50 (Entamoeba histolytica) [µM] | IC50 (Toxoplasma gondii) [µM]
CN1CCN(c2ccc(Nc3c4ccccc4nc4ccccc34)cc2)CC1 | > 30 | > 30
CN(C)CCCNc1c2ccccc2nc2ccccc12 | > 30 | 25.8
COc1ccc(-c2c(C)nn3c(N)c(C#N)cnc23)cc1OC | > 30 | > 30
CSC1=NC(=Nc2c(C)cccc2C)C2(CCC(C(C)(C)C)CC2)N1c1ccc(Cl)cc1 (stereo unspecified) | > 30 | > 30
Cc1cc(C)cc(Nc2cc(C)nc3nc(C(F)(F)F)nn23)c1 | > 30 | > 30
O=C(NCC(c1ccsc1)N1CCCCCC1)c1ccc(C(F)(F)F)cc1 (stereo unspecified) | > 30 | > 30
COc1ccc(-c2cc3c(SCC(=O)Nc4cc(C(F)(F)F)ccc4Cl)nccn3n2)cc1 | > 30 | > 30
Cc1ccc(-c2cc3c(SCC(=O)Nc4cc(C(F)(F)F)ccc4Cl)nccn3n2)cc1 | > 30 | > 30
CCN(CC)CCNc1ncnc2c1[nH]c1ccc(Cl)cc12 | > 30 | > 30
CCOC(=O)c1cnc2ccc(CC)cc2c1O | > 30 | > 30
CCN(CC)CCNc1ccnc2cc(Cl)ccc12 | > 30 | > 30
CCCCCC(=O)N1c2ccccc2N=C2CC(c3ccc(OC)c(OC)c3)CC(O)=C2C1c1ccc(C(F)(F)F)cc1 (stereo unspecified) | > 30 | > 30
Cc1cc(Nc2ccc3ccccc3c2)n2ncnc2n1 | > 30 | > 30
Cc1cc(NCCN2CCCCC2)c2ccc3ccccc3c2n1 | > 30 | > 30
COc1ccc(-n2ccnc2SCC(=O)Nc2cc(C)ccc2C)c(OC)c1 | > 30 | > 30
CCN1CCN(Cc2ccc(NC(=O)c3cc4ccc5cccnc5c4[nH]3)cc2)CC1 | > 30 | 3.85
COc1ccc(-c2nc(NC(=O)CS(=O)(=O)c3ccc(F)cc3)sc2C)cc1 | > 30 | > 30
O=C(O)C1Cc2c([nH]c3ccccc23)C(c2ccc(Cl)cc2Cl)N1 (stereo unspecified) | > 30 | > 30
Cc1ccc(N2C(=O)C3C(C2=O)C2(c4ccccc4)C(=O)C3(c3ccccc3)C(c3ccccc3)=C2c2ccccc2)cc1 (stereo unspecified) | > 30 | > 30
CCc1c(C)c(=N)c2ccccc2n1C | > 30 | > 30
COc1cccc(NC(=O)[C@H](C(C)C)n2c(=O)[nH]c3ccccc3c2=O)c1 | > 30 | > 30

SMILES | IC50 (Entamoeba histolytica) [µM] | IC50 (Toxoplasma gondii) [µM]
CCOC(=O)c1cn(CC)c2cc(N(C)CCc3ccc(OC)c(OC)c3)c(F)cc2c1=O | > 30 | > 30
CCC(c1ccccc1)c1nn2c(-c3cccs3)nnc2s1 (stereo unspecified) | > 30 | > 30
CC(C)(C)c1ccc(O)c(CNC2CCCCC2)c1 | > 30 | > 30
O=[N+]([O-])c1ccc(C=NNc2nc3ccccc3[nH]2)cc1 | > 30 | > 30
CC1CN(C(=O)c2sc3ccccc3c2Cl)CC(C)O1 (stereo unspecified) | > 30 | > 30
CN(C)c1ccc(C=Cc2nc(=O)c3ccccc3o2)cc1 | > 30 | > 30
COc1ccc(C2=C(c3ccc(OC)cc3)C3(c4ccccc4)C(=O)C2(c2ccccc2)C2C(=O)N(c4ccc(C)cc4)C(=O)C23)cc1 (stereo unspecified) | > 30 | > 30
CCOC(=O)c1c(NC(=O)c2ccccc2)sc2c(O)c(CN(CC)CC)ccc12 | > 30 | > 30
CCOC(=O)C1=C(c2ccccc2)N=c2sc(=Cc3cc(C)n(-c4ccc(F)cc4)c3C)c(=O)n2C1c1cccc(OC)c1OC (stereo unspecified) | > 30 | > 30
CCC1(C)CC(CCNCc2ccccc2O)(c2ccc(C)cc2)CCO1 (stereo unspecified) | > 30 | > 30
OC(CNC1CCCCC1)Cn1c2ccccc2c2ccccc21 (stereo unspecified) | > 30 | 8.72
Cc1cc(Nc2ccc(C)c(Cl)c2)n2nc(C(F)(F)F)nc2n1 | > 30 | > 30
CCCN(CCC)CC(O)COc1ccccc1C(=O)Nc1ccccc1 (stereo unspecified) | > 30 | > 30
Fc1ccc2[nH]c3c(NCCCN4CCOCC4)ncnc3c2c1 | > 30 | > 30
COc1ccc(C=C2SC(=N)N(c3ccccc3OC)C2=O)cc1 | > 30 | > 30
COc1ccc(NC(=O)C2c3ccccc3C(=O)N(CC(C)C)C2c2cccs2)cc1Cl (stereo unspecified) | > 30 | > 30
CCOC(=O)c1c(C)n(-c2ccc(Cl)cc2)c2ccc(OC(=O)C=Cc3ccccc3)cc12 | 10.7 | > 30
C=CC12CCN(CC1)C(C(O)c1ccnc3ccc(OC)cc13)C2 (stereo unspecified) | > 30 | > 30
Cc1ccc(-c2cc3nc4c(c(O)n3n2)CCCC4)cc1 | > 30 | 8.22
Cc1cccc(Nc2nc(N)c3ccccc3n2)c1 | > 30 | > 30
CCn1c(CN2CCN(Cc3ccccc3)CC2)nc2cc(NC(=O)c3cccs3)ccc21 | > 30 | > 30

SMILES | IC50 (Entamoeba histolytica) [µM] | IC50 (Toxoplasma gondii) [µM]
COc1ccccc1CNC(=O)CCn1c(=O)[nH]c2ccccc2c1=O | > 30 | > 30
Cc1cc(C)c2c(c1)OCN(Cc1ccccc1Cl)C2 | > 30 | > 30
COc1cc(OC)c(N(C)C(=O)c2cc3c(s2)-c2ccccc2S(=O)(=O)C3)cc1Cl | > 30 | > 30
COc1ccccc1NC1=C(N2CCCCC2)C(=O)c2ccccc2C1=O | > 30 | 4.54
CCCc1cc(O)c2c3c(c(=O)oc2c1)CN(C)CC3 | > 30 | > 30
Cc1cc(NC(=O)C2c3ccccc3C(=O)N(CC(C)C)C2c2cccs2)no1 (stereo unspecified) | > 30 | 20.9
Oc1ccccc1CNCC12CC3CC(CC(C3)C1)C2 | > 30 | > 30
CNCCCNc1ccnc2cc(Cl)ccc12 | > 30 | > 30
COc1ccccc1CNC(=O)CCn1c(=O)[nH]c2ccsc2c1=O | > 30 | 20.9
COc1ccc(Br)cc1C1Nc2ccc3ccccc3c2C2=C1C(=O)CC(c1ccccc1)C2 (stereo unspecified) | > 30 | > 30
Cc1cc(C=C2SC(=Nc3ccccc3)N(C3CCCC3)C2=O)c(C)n1-c1ccc(Cl)cc1 | > 30 | > 30
CC1CCN(Cc2ccc(NC(=O)c3cc4ccc5cccnc5c4[nH]3)cc2)CC1 | > 30 | > 30
CCc1ccc(Nc2cc(C)c3ccc(O)cc3n2)cc1 | > 30 | > 30
COc1ccc2c(=O)cc(C(Cl)(Cl)Cl)oc2c1 | > 30 | 6.45
CSc1ccccc1C(=O)Nc1nc(-c2ccccn2)cs1 | > 30 | > 30
COc1ccc(-c2nc3cc(Cc4ccc5[nH]c(-c6ccc(OC)cc6)nc5c4)ccc3[nH]2)cc1 | > 30 | > 30
COc1ccc(C(C)=O)cc1N1C(=O)C2C(C1=O)C1(c3ccccc3)C(=O)C2(c2ccccc2)C(c2ccc(C)cc2)=C1c1ccc(C)cc1 (stereo unspecified) | > 30 | > 30
Cc1ccc(N2C3c4ccccc4N(S(=O)(=O)c4ccc(C)cc4)C2c2ccccc2N3S(=O)(=O)c2ccc(C)cc2)cc1 | > 30 | > 30
CCCc1c(CC)c(=N)c2ccccc2n1C | > 30 | > 30
CCOC(=O)c1cnc2c(C)cc(C)cc2c1Nc1ccc(OC)c(OC)c1 | > 30 | > 30
c1ccc(Cn2c(N=Nc3c(Nc4ccccc4)ccc4ccccc34)nc3ccccc32)cc1 | > 30 | 13.5
